Data taken from the supplement of paper PMC10307832.

Columns and labels:
Assay in all cases: relative viability (nuclei count vs DMSO), 5 days (fraction); higher = more cells survive
Omipalisib + Linsitinib = compound: COc1ncc(-c2ccc3nccc(-c4ccnnc4)c3c2)cc1NS(=O)(=O)c1ccc(F)cc1F [Omipalisib] + C[C@]1(O)C[C@@H](c2nc(-c3ccc4ccc(-c5ccccc5)nc4c3)c3c(N)nccn32)C1 [Linsitinib] (partner 1 µM)
Procedure, shortened: (§1)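 Five library-drug doses in √10 steps were combined with a fixed anchor-drug dose, or a single drug was given alone, by pin tool to lung cancer cell lines in 1536-well plates the day after seeding. Nuclei were stained and counted after 5 days. Relative viability is the nuclei count in treated wells over that in vehicle wells, taken as the median of duplicate plates.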

Omipalisib + Foretinib = compound: COc1ncc(-c2ccc3nccc(-c4ccnnc4)c3c2)cc1NS(=O)(=O)c1ccc(F)cc1F [Omipalisib] + COc1cc2c(Oc3ccc(NC(=O)C4(C(=O)Nc5ccc(F)cc5)CC4)cc3F)ccnc2cc1OCCCN1CCOCC1 [Foretinib] (partner 0.25 µM)
Procedure, shortened: as §1

Omipalisib + Dasatinib = compound: COc1ncc(-c2ccc3nccc(-c4ccnnc4)c3c2)cc1NS(=O)(=O)c1ccc(F)cc1F [Omipalisib] + Cc1nc(Nc2ncc(C(=O)Nc3c(C)cccc3Cl)s2)cc(N2CCN(CCO)CC2)n1 [Dasatinib] (partner 0.075 µM)
Procedure, shortened: as §1

Omipalisib + Decitabine = compound: COc1ncc(-c2ccc3nccc(-c4ccnnc4)c3c2)cc1NS(=O)(=O)c1ccc(F)cc1F [Omipalisib] + Nc1ncn([C@H]2C[C@H](O)[C@@H](CO)O2)c(=O)n1 [Decitabine] (partner 2 µM)
Procedure, shortened: as §1

Omipalisib + Navitoclax = compound: COc1ncc(-c2ccc3nccc(-c4ccnnc4)c3c2)cc1NS(=O)(=O)c1ccc(F)cc1F [Omipalisib] + CC1(C)CCC(c2ccc(Cl)cc2)=C(CN2CCN(c3ccc(C(=O)NS(=O)(=O)c4ccc(N[C@H](CCN5CCOCC5)CSc5ccccc5)c(S(=O)(=O)C(F)(F)F)c4)cc3)CC2)C1 [Navitoclax] (partner 0.5 µM)
Procedure, shortened: as §1

Omipalisib + Pemetrexed = compound: COc1ncc(-c2ccc3nccc(-c4ccnnc4)c3c2)cc1NS(=O)(=O)c1ccc(F)cc1F [Omipalisib] + Nc1nc2[nH]cc(CCc3ccc(C(=O)N[C@@H](CCC(=O)O)C(=O)O)cc3)c2c(=O)[nH]1 [Pemetrexed] (partner 0.2 µM)
Procedure, shortened: as §1

Row | Cell Line | relative viability (Omipalisib + Linsitinib; first compound 0.0003 µM) | relative viability (Omipalisib + Linsitinib; first compound 0.003 µM) | relative viability (Omipalisib + Linsitinib; first compound 0.03 µM) | relative viability (Omipalisib + Foretinib; first compound 0.0003 µM) | relative viability (Omipalisib + Foretinib; first compound 0.003 µM) | relative viability (Omipalisib + Foretinib; first compound 0.03 µM) | relative viability (Omipalisib + Dasatinib; first compound 0.0003 µM) | relative viability (Omipalisib + Dasatinib; first compound 0.003 µM) | relative viability (Omipalisib + Dasatinib; first compound 0.03 µM) | relative viability (Omipalisib + Decitabine; first compound 0.0003 µM) | relative viability (Omipalisib + Decitabine; first compound 0.003 µM) | relative viability (Omipalisib + Decitabine; first compound 0.03 µM) | relative viability (Omipalisib + Navitoclax; first compound 0.0003 µM) | relative viability (Omipalisib + Navitoclax; first compound 0.003 µM) | relative viability (Omipalisib + Navitoclax; first compound 0.03 µM) | relative viability (Omipalisib + Pemetrexed; first compound 0.0003 µM) | relative viability (Omipalisib + Pemetrexed; first compound 0.003 µM) | relative viability (Omipalisib + Pemetrexed; first compound 0.03 µM)
1 | LC-2-ad | 0.848 | 0.587 | 0.314 | 0.961 | 0.743 | 0.411 | 0.503 | 0.47 | 0.168 | 0.812 | 0.739 | 0.63 | 0.531 | 0.309 | 0.105 | 0.279 | 0.26 | 0.275
2 | BEN | 0.669 | 0.497 | 0.554 | 0.518 | 0.403 | 0.538 | 0.277 | 0.3 | 0.307 | 0.695 | 0.612 | 0.606 | 0.0683 | 0.0526 | 0.0581 | 0.694 | 0.581 | 0.569
3 | NCI-H1944 | 1.21 | 0.854 | 0.481 | 0.811 | 0.457 | 0.31 | 0.194 | 0.17 | 0.156 | 0.384 | 0.356 | 0.239 | 0.975 | 0.775 | 0.474 | 0.626 | 0.471 | 0.324
4 | HCC-827 | 0.911 | 0.922 | 0.387 | 1.03 | 0.803 | 0.288 | 0.194 | 0.233 | 0.147 | 0.298 | 0.244 | 0.239 | 0.979 | 0.97 | 0.651 | 0.242 | 0.282 | 0.191
5 | HCC-44 | 0.658 | 0.457 | 0.282 | – | – | – | – | – | – | 0.95 | 0.914 | 0.787 | 0.848 | 0.63 | 0.27 | 0.68 | 0.682 | 0.694
6 | ChaGo-K-1 | – | – | – | 0.852 | 0.75 | 0.715 | 0.657 | 0.583 | 0.473 | 0.494 | 0.448 | 0.47 | 0.762 | 0.686 | 0.945 | 0.273 | 0.254 | 0.255
7 | NCI-H647 | 1.11 | 0.95 | 0.373 | 1.16 | 0.965 | 0.603 | 0.162 | 0.0952 | 0.0677 | 0.34 | 0.248 | 0.378 | 0.873 | 0.86 | 0.542 | 0.189 | 0.158 | 0.183
8 | HOP-62 | 1.11 | 0.779 | 0.559 | 1.09 | 1.1 | 0.946 | 0.629 | 0.458 | 0.27 | 0.211 | 0.264 | 0.199 | 1.1 | 1.19 | 0.81 | 0.286 | 0.354 | 0.302
9 | NCI-H1666 | 0.689 | 0.719 | 0.41 | 0.92 | 0.819 | 0.629 | 0.787 | 0.673 | 0.539 | 0.843 | 0.614 | 0.567 | 0.808 | 0.597 | 0.398 | 0.879 | 0.892 | 0.631
10 | SW 900 | – | – | – | 0.888 | 0.691 | 0.622 | 0.568 | 0.293 | 0.211 | 0.386 | 0.344 | 0.392 | – | – | – | 0.508 | 0.456 | 0.487
11 | PC-3 [JPC-3] | 0.962 | 0.976 | 0.92 | 1.03 | 1.03 | 0.856 | 0.942 | 0.917 | 0.726 | 0.776 | 0.816 | 0.627 | 0.781 | 0.76 | 0.646 | 1.03 | 1.12 | 0.89
12 | NCI-H661 | 0.389 | 0.439 | 0.234 | 1.06 | 0.999 | 0.783 | 0.822 | 0.573 | 0.312 | 0.522 | 0.453 | 0.422 | – | – | – | 0.925 | 0.9 | 0.761
13 | NCI-H2085 | 0.786 | 0.737 | 0.275 | 0.95 | 0.884 | 0.26 | 0.258 | 0.194 | 0.227 | 0.524 | 0.507 | 0.348 | 1.12 | 0.951 | 0.509 | 0.986 | 0.855 | 0.406
14 | NCI-H2126 | 0.712 | 0.644 | 0.422 | 1.01 | 0.718 | 0.342 | 0.545 | 0.366 | 0.301 | 0.548 | 0.414 | 0.304 | 0.82 | 0.594 | 0.375 | 0.652 | 0.537 | 0.38
15 | NCI-H460 | 0.509 | 0.232 | 0.0381 | 1.04 | 1.01 | 0.347 | 0.385 | 0.288 | 0.0813 | 0.41 | 0.286 | 0.247 | 1.06 | 0.61 | 0.143 | 0.0592 | 0.0512 | 0.0757
16 | NCI-H596 | 0.817 | 0.517 | 0.355 | 0.559 | 0.485 | 0.304 | 0.618 | 0.44 | 0.295 | 0.846 | 0.75 | 0.506 | 0.849 | 0.519 | 0.174 | 0.497 | 0.586 | 0.407
17 | LK-2 | 0.439 | 0.412 | 0.331 | 0.832 | 0.553 | 0.484 | 0.231 | 0.151 | 0.169 | 0.235 | 0.201 | 0.147 | 0.595 | 0.285 | 0.343 | 0.253 | 0.211 | 0.16
18 | UMC-11 | 0.953 | 0.838 | 0.694 | 1.04 | 0.803 | 0.795 | 0.445 | 0.455 | 0.422 | 0.491 | 0.397 | 0.527 | 0.31 | 0.277 | 0.265 | 0.717 | 0.63 | 0.648
